In the OPERA property sets (Mansouri et al. 2018):

Details: not given

| Compound | melting point | boiling point | log10 Koc (L/kg) | ready biodegradability | log10 vapour pressure (mmHg) | log10 Henry constant (atm·m³/mol) | log10 Koa |
| --- | --- | --- | --- | --- | --- | --- | --- |
| CC(=O)[C@H]1CC[C@H]2[C@@H]3CCC4=CC(=O)CC[C@]4(C)[C@H]3CC[C@]12C | 121 °C | – | – | – | – | – | – |
| FC(F)(Cl)CBr | -76 °C | 68.4 °C | – | – | – | – | – |
| CCCCc1ccc2ccccc2c1 | -5 °C | 292 °C | – | – | – | – | – |
| Ic1ccc(I)cc1 | 132 °C | 285 °C | – | – | – | – | – |
| O=P(O)(O)c1ccccc1 | 164 °C | – | – | – | – | – | – |
| CNC(=O)Oc1cc(C)c(N(C)C)c(C)c1 | 85 °C | – | 2.48 | – | – | – | – |
| O=Cc1ccccc1C(=O)O | 98 °C | – | – | – | – | – | – |
| C[C@]12CCC(=O)C=C1CC[C@@H]1[C@@H]2CC[C@@]2(C)[C@H]1CC[C@]2(O)C(=O)CO | 215 °C | – | – | – | – | – | – |
| CCCCCC=CC=CC(=O)O | 49.5 °C | – | – | – | – | – | – |
| CCCCCCC(=O)CCCC | 2 °C | 227 °C | – | – | – | – | – |
| Cc1cc(=O)nc(C(C)C)[nH]1 | 173 °C | – | – | not readily biodegradable | – | – | – |
| CCCCCCCCCCCCOc1ccc(C(=O)O)cc1 | 95 °C | – | – | – | – | – | – |
| C=CCSC#N | – | 161 °C | – | – | – | – | – |
| CC1OC(C)OC(C)OC(C)O1 (stereo unspecified) | – | – | 2.38 | not readily biodegradable | – | – | – |
| CN(C)CCCN1c2ccccc2CCc2ccc(Cl)cc21 | 190 °C | – | – | – | – | – | – |
| COc1cc2ccc(=O)oc2c(O)c1O | 231 °C | – | – | – | – | – | – |
| IC(I)(I)I | 171 °C | – | – | – | – | – | – |
| CCOC(=O)[C@@H](C)Br | – | 160 °C | – | – | – | – | – |
| O=C(O)c1cc(=O)c2cccc(O)c2[nH]1 | 289 °C | – | – | – | – | – | – |
| CCCC=Cc1ccccc1 | – | 217 °C | – | – | – | – | – |
| COc1c(C[C@@H](O)C(C)C)c(=O)n(C)c2c(OC)cccc12 | 86.5 °C | – | – | – | – | – | – |
| CCOC(=O)CCC(=O)OCC | -21 °C | 218 °C | – | – | -1.36 | – | – |
| O=C(O)/C=C/c1ccc(Cl)cc1Cl | 234 °C | – | – | – | – | – | – |

| Compound | melting point | boiling point | log10 Koc (L/kg) | ready biodegradability | log10 vapour pressure (mmHg) | log10 Henry constant (atm·m³/mol) | log10 Koa |
| --- | --- | --- | --- | --- | --- | --- | --- |
| CC(=O)C(Cl)(Cl)Cl | – | 149 °C | – | – | – | – | – |
| O=C(N/N=C/C=C/c1ccc([N+](=O)[O-])o1)c1ccc([N+](=O)[O-])s1 | 236 °C | – | – | – | – | – | – |
| COCC(=O)N(c1c(C)cccc1C)C(C)C(=O)OC (stereo unspecified) | – | – | 1.57 | not readily biodegradable | -4.93 | – | – |
| COc1c(C(C)(C)C)cc([N+](=O)[O-])c(C)c1[N+](=O)[O-] | 85 °C | – | – | – | – | – | – |
| FC1(F)C(F)(F)C(F)(F)C2(F)C(F)(C1(F)F)C(F)(F)C(F)(F)C1(F)C(F)(F)C(F)(F)C(F)(F)C(F)(F)C12F (stereo unspecified) | -20 °C | 210 °C | – | – | – | – | – |
| O=C1c2ccccc2C(=O)c2c(Br)cccc21 | 186 °C | – | – | – | – | – | – |
| CCOC(=O)c1ccccc1C(=O)c1ccccc1 | 59.5 °C | – | – | – | – | – | – |
| O=P(O)(O)C(Cl)(Cl)P(=O)(O)O | 250 °C | – | – | – | – | – | – |
| Cc1cc(Cl)ccc1NC(=S)N(C)C | 175 °C | – | – | – | – | – | – |
| O=C(O)CCCCCCCCCCC(=O)O | 128 °C | – | – | – | – | – | – |
| c1ccc(CSCc2ccccc2)cc1 | 49.5 °C | – | – | – | – | – | – |
| NC(=O)N1c2ccccc2CC(=O)c2ccccc21 | 216 °C | – | – | – | – | – | – |
| OCC(Br)CBr (stereo unspecified) | – | – | – | – | -1.04 | – | – |
| O=C(O)C(=O)c1ccccc1 | 66 °C | – | – | – | – | – | – |
| CCNCCO | – | 170 °C | – | – | – | – | – |
| CCCCCC/C=C\CCCCCCCC(=O)O | 0.2 °C | – | – | – | – | – | – |
| O=[N+]([O-])c1ccccc1Br | 43 °C | 258 °C | – | – | – | – | – |
| CN(C)c1ccc(N)cc1 | 53 °C | 263 °C | – | – | – | – | – |
| c1ccc2c(c1)NCCN2 | 99 °C | 289 °C | – | – | – | – | – |
| CCCCS(=O)CCCC | 32.6 °C | – | – | – | – | – | – |
| CCCCCCCI | -48.2 °C | 204 °C | – | – | -0.351 | -1.41 | – |
| NNS(=O)(=O)c1ccc(Oc2ccc(S(=O)(=O)NN)cc2)cc1 | – | – | – | not readily biodegradable | – | – | – |
| Clc1c(Cl)c(Cl)c2c(Cl)c(Cl)c(Cl)c(Cl)c2c1Cl | 198 °C | – | 5.89 | – | -7.96 | – | 11.1 |

| Compound | melting point | boiling point | log10 Koc (L/kg) | ready biodegradability | log10 vapour pressure (mmHg) | log10 Henry constant (atm·m³/mol) | log10 Koa |
| --- | --- | --- | --- | --- | --- | --- | --- |
| O=C(O)c1ccccc1C(=O)Nc1ccc(S(=O)(=O)Nc2nccs2)cc1 | 273 °C | – | – | – | – | – | – |
| O=[N+]([O-])c1cc(Br)ccc1Br | 85.5 °C | – | – | – | – | – | – |
| CCCCCCCCOc1ccccc1 | 8 °C | 285 °C | – | – | – | – | – |
| O[C@H]1[C@H](O)[C@@H](O)[C@H](O)[C@@H](O)[C@H]1O (racemic) | 237 °C | – | – | – | – | – | – |
| NC(=O)Nc1ccccc1 | 147 °C | 238 °C | 1.35 | not readily biodegradable | – | – | – |
| CN(C)C(=O)Cl | -33 °C | 167 °C | – | – | 0.29 | – | – |
| N#Cc1cccc2ccccc12 | 37.5 °C | 299 °C | – | – | – | – | – |
| CC(=O)CF | – | 77 °C | – | – | 1.8 | – | – |
| C#CCN1CC(=O)N(COC(=O)[C@@H]2[C@@H](C=C(C)C)C2(C)C)C1=O | – | – | – | – | -7.87 | – | – |
| CCCCCCCCCCc1ccc(O)c(/C=N/O)c1 | – | – | – | readily biodegradable | – | – | – |
| Cc1ccnc(N)n1 | 160 °C | – | – | – | – | – | – |
| COc1cc(C#N)ccc1O | 86 °C | – | – | – | – | – | – |
| O=C(O)Cc1sc(-c2ccccc2)nc1-c1ccc(Cl)cc1 | 162 °C | – | – | – | – | – | – |
| COc1ccc(OC)c(N)c1 | 82.5 °C | 270 °C | – | – | – | – | – |
| CCCCCC[N+](=O)[O-] | – | 193 °C | – | – | – | – | – |
| Cc1ccc(N(C)C)cc1 | – | 211 °C | – | – | -0.75 | – | – |
| COc1cc(OC)nc(NC(=O)NS(=O)(=O)c2ncccc2C(=O)N(C)C)n1 | 142 °C | – | 1.48 | – | – | – | – |
| CC(O)C(Cl)(Cl)Cl (stereo unspecified) | 50.5 °C | 163 °C | – | – | – | – | – |
| NS(=O)(=O)c1ccc(CCCCCO)cc1 | 86 °C | – | – | – | – | – | – |
| NCc1ccco1 | – | 146 °C | – | – | – | – | – |
| OCC(O)CCl (stereo unspecified) | – | – | – | readily biodegradable | -0.699 | – | – |
| [O-][N+](=Nc1ccccc1)c1ccccc1 | 36 °C | – | 3.5 | – | – | – | – |
| Nc1cc(Cl)c(Cl)cc1Cl | 96.5 °C | 270 °C | – | – | – | – | – |

| Compound | melting point | boiling point | log10 Koc (L/kg) | ready biodegradability | log10 vapour pressure (mmHg) | log10 Henry constant (atm·m³/mol) | log10 Koa |
| --- | --- | --- | --- | --- | --- | --- | --- |
| CC(=O)c1ccc(Cl)c(Cl)c1 | 76 °C | – | – | – | – | – | – |
| CCCCCCCCCCCCCCCC(=O)CC | 51 °C | – | – | – | – | – | – |
| O=C1CCCCCO1 | -18 °C | 215 °C | – | readily biodegradable | -0.87 | – | – |
| Cc1ccc2c(Cl)cc(Cl)c(O)c2n1 | 114 °C | – | – | – | – | – | – |
| C#CCCCCCCC(=O)O | 19 °C | – | – | – | – | – | – |
| COc1ccc(NS(=O)(=O)c2ccc(N)cc2)nn1 | 182 °C | – | – | – | – | – | – |
| Cc1c(NC(C)C)c(=O)n(-c2ccccc2)n1C | 80 °C | – | – | – | – | – | – |
| O=C=NC1CCCCC1 | -80 °C | 172 °C | – | – | 0.0086 | – | – |
| CC(C)(N)CO | 25.5 °C | 166 °C | – | – | 0 | – | – |
| CC1(C)C(=O)Nc2ccccc21 | 154 °C | 300 °C | – | – | – | – | – |
| C=CC[Si](C)(C)C | – | 86 °C | – | – | – | – | – |
| C1CCCOCC1 | – | 119 °C | – | – | – | – | – |
| CCCOC(=O)OCCC | – | 168 °C | – | – | – | – | – |
| CC(C)[C@H]1CC[C@H](C)C[C@@H]1OCC(=O)O | 54 °C | – | – | – | – | – | – |
| Ic1cccc2ccccc12 | 4.2 °C | 302 °C | – | readily biodegradable | – | – | – |
| Clc1ccccc1-c1cc(Cl)c(Cl)c(Cl)c1Cl | – | – | – | – | -4.16 | – | – |
| Cc1occc(=O)c1O | 162 °C | – | – | – | – | – | – |
| C=C(C)C1CC1 | – | 70 °C | – | – | – | – | – |
| O=P(O)(O)CCCl | 74.2 °C | – | 0 | – | -7.01 | – | – |
| C=COC(=O)CCCCC | – | – | – | readily biodegradable | – | – | – |
| O=C1NCCCN1 | 265 °C | – | – | – | – | – | – |
| O=[N+]([O-])c1c(Cl)ncnc1Cl | 102 °C | – | – | – | – | – | – |

Same assay, conditions: fish

| Compound | log10 biotransformation half-life (days) | log10 BCF |
| --- | --- | --- |
| Cc1cc2cc3cc(C)c(C)cc3cc2cc1C | 0.59 | – |
| CNC(=O)Oc1cc(C)c(N(C)C)c(C)c1 | – | 1.42 |
| Cc1cc(=O)nc(C(C)C)[nH]1 | – | 0.26 |
| Clc1c(Cl)c(Cl)c2c(Cl)c(Cl)c(Cl)c(Cl)c2c1Cl | 1.62 | 2.58 |
| Nc1cc(Cl)c(Cl)cc1Cl | -0.01 | 2.33 |
